{"source": "patent US20240400555A1", "about": "(Initial Therapeutics, Inc., priority 2023, published 2024)", "test_system": "MV-4-11 cells", "experiment": "Cell Viability Assay in MV-4-11 Cells", "format": "cell-based", "details": "Homo sapiens, MV4-11, 72 h", "outline": "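MV-4-11 cells at 7,000/well in IMDM with 10% FBS, exposed to compound for 72 h. Viability by CellTiter-Glo luminescence, normalized to DMSO as 100%, fitted with a four-parameter curve.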", "key": {"[1]": {"details": "MV-4-11 cells, 72 h, Cell-Titer Glo, read-out: IC50"}}, "note": "Like-named read-outs stand apart in the source and are kept apart here.", "data": [{"smiles": "Cn1cc(-c2ccc(C(=O)N(c3nccc4cc(-c5ccccn5)ccc34)[C@@H]3CCCNC3)c(F)c2)nn1", "note": "[Example 581, (R)-2-fluoro-4-(1-methyl-1H-1,2,3-triazol-4-yl)-N-(piperidin-3-yl)-N-(6-(pyridin-2-yl)isoquinolin-1-yl)benzamide]", "values": [{"measurement": "IC50", "setting": "[1]", "value": 0.34, "unit": "µM"}]}, {"smiles": "Cn1cc(-c2ccc(C(=O)N(c3nccc4cc(-c5ccc(S(C)(=O)=O)cc5)ccc34)[C@@H]3CCCNC3)c(F)c2)nn1", "note": "[Example 582, (R)-2-fluoro-4-(1-methyl-1H-1,2,3-triazol-4-yl)-N-(6-(4-(methylsulfonyl)phenyl)isoquinolin-1-yl)-N-(piperidin-3-yl)benzamide]", "values": [{"measurement": "IC50", "setting": "[1]", "value": 0.22, "unit": "µM"}]}, {"smiles": "Cc1cc(F)cc2ccnc(N(C(=O)c3ccc(-n4nnc5cccnc54)cc3F)[C@@H]3CCCNC3)c12", "note": "[Example 583, (R)-4-(3H-[1,2,3]triazolo[4,5-b]pyridin-3-yl)-2-fluoro-N-(6-fluoro-8-methylisoquinolin-1-yl)-N-(piperidin-3-yl)benzamide]", "values": [{"measurement": "IC50", "setting": "[1]", "value": 0.0042, "unit": "µM"}]}, {"smiles": "CC(C)(O)c1ccc(-c2cc3c(N(C(=O)c4ccc(-n5nnc6cccnc65)cc4F)[C@@H]4CCCNC4)nccc3s2)cc1", "note": "[Example 585, (R)-4-(3H-[1,2,3]triazolo[4,5-b]pyridin-3-yl)-2-fluoro-N-(2-(4-(2-hydroxypropan-2-yl)phenyl)thieno[3,2-c]pyridin-4-yl)-N-(piperidin-3-yl)benzamide]", "values": [{"measurement": "IC50", "setting": "[1]", "value": 0.44, "unit": "µM"}]}, {"smiles": "CC(C)(O)C#Cc1ccc2c(N(C(=O)c3ccc(-n4nnc5cccnc54)cc3F)[C@@H]3CCCNC3)nccc2c1", "note": "[Example 586, (R)-4-(3H-[1,2,3]triazolo[4,5-b]pyridin-3-yl)-2-fluoro-N-(6-(3-hydroxy-3-methylbut-1-yn-1-yl)isoquinolin-1-yl)-N-(piperidin-3-yl)benzamide]", "values": [{"measurement": "IC50", "setting": "[1]", "value": 0.31, "unit": "µM"}]}, {"smiles": "Cc1cc(C#CC(C)(C)O)cc2ccnc(N(C(=O)c3ccc(-n4nnc5cccnc54)cc3F)[C@@H]3CCCNC3)c12", "note": "[Example 587, (R)-4-(3H-[1,2,3]triazolo[4,5-b]pyridin-3-yl)-2-fluoro-N-(6-(3-hydroxy-3-methylbut-1-yn-1-yl)-8-methylisoquinolin-1-yl)-N-(piperidin-3-yl)benzamide]", "values": [{"measurement": "IC50", "setting": "[1]", "value": 0.014, "unit": "µM"}]}, {"smiles": "Cc1cccc2ccnc(N(C(=O)c3cccc(C#CCCN4C(=O)c5ccccc5C4=O)c3)[C@@H]3CCCNC3)c12", "note": "[Example 588, (R)-3-(4-(1,3-dioxoisoindolin-2-yl)but-1-yn-1-yl)-N-(8-methylisoquinolin-1-yl)-N-(piperidin-3-yl)benzamide]", "values": [{"measurement": "IC50", "setting": "[1]", "value": 0.79, "unit": "µM"}]}, {"smiles": "COC(=O)CCC#Cc1cccc(C(=O)N(c2nccc3cccc(C)c23)[C@@H]2CCCNC2)c1", "note": "[Example 589, methyl (R)-5-(3-((8-methylisoquinolin-1-yl)(piperidin-3-yl)carbamoyl)phenyl)pent-4-ynoate]", "values": [{"measurement": "IC50", "setting": "[1]", "value": 1, "unit": "µM"}]}, {"smiles": "Cc1cccc2ccnc(N(C(=O)c3cccc(C#CCCC(=O)O)c3)[C@@H]3CCCNC3)c12", "note": "[Example 590, (R)-5-(3-((8-methylisoquinolin-1-yl)(piperidin-3-yl)carbamoyl)phenyl)pent-4-ynoic acid]", "values": [{"measurement": "IC50", "setting": "[1]", "value": "> 10", "unit": "µM"}]}, {"smiles": "O=C(c1ccc(Nc2ncccn2)cc1F)N(c1nccc2cc(F)ccc12)[C@@H]1CCCNC1", "note": "[Example 591, (R)-2-fluoro-N-(6-fluoroisoquinolin-1-yl)-N-(piperidin-3-yl)-4-(pyrimidin-2-ylamino)benzamide]", "values": [{"measurement": "IC50", "setting": "[1]", "value": "> 2", "unit": "µM"}]}, {"smiles": "Cc1cccc2ccnc(N(C(=O)c3ccc(C#CC(C)(C)O)cc3F)[C@@H]3CCCNC3)c12", "note": "[Example 592, (R)-2-fluoro-4-(3-hydroxy-3-methylbut-1-yn-1-yl)-N-(8-methylisoquinolin-1-yl)-N-(piperidin-3-yl)benzamide]", "values": [{"measurement": "IC50", "value": 0.36, "unit": "µM"}]}, {"smiles": "Cc1nnc(-c2ccc(C(=O)N(c3nccc4sc(-c5ccncc5)cc34)[C@@H]3CCCNC3)c(F)c2)s1", "note": "[Example 593, 2-fluoro-4-(5-methyl-1,3,4-thiadiazol-2-yl)-N-[(3R)-3-piperidyl]-N-[2-(4-pyridyl)thieno[3,2-c]pyridin-4-yl]benzamide]", "values": [{"measurement": "IC50", "setting": "[1]", "value": 0.78, "unit": "µM"}]}, {"smiles": "CC(C)(Oc1cccc(-c2cc3c(N(C(=O)c4ccc(-n5nnc6cccnc65)cc4F)[C@@H]4CCCNC4)nccc3s2)c1)C(N)=O", "note": "[Example 594]", "values": [{"measurement": "IC50", "setting": "[1]", "value": 0.19, "unit": "µM"}]}, {"smiles": "Cn1cc(-c2ccc(C(=O)N(c3nccc4sc(-c5ccc(C(C)(C)C(N)=O)cc5)cc34)[C@@H]3CCCNC3)c(F)c2)nn1", "note": "[Example 595]", "values": [{"measurement": "IC50", "setting": "[1]", "value": 0.47, "unit": "µM"}]}, {"smiles": "Cn1cc(-c2ccc(C(=O)N(c3nccc4sc(-c5ccc(-c6cn[nH]c6)cc5)cc34)[C@@H]3CCCNC3)c(F)c2)nn1", "note": "[Example 597]", "values": [{"measurement": "IC50", "setting": "[1]", "value": 0.19, "unit": "µM"}]}, {"smiles": "O=C(c1ccc(-n2nnc3cccnc32)cc1F)N(c1nccc2sc(-c3ccc(CO)cc3)cc12)[C@@H]1CCCNC1", "note": "[Example 599, (R)-4-(3H-[1,2,3]triazolo[4,5-b]pyridin-3-yl)-2-fluoro-N-(2-(4-(hydroxymethyl)phenyl)thieno[3,2-c]pyridin-4-yl)-N-(piperidin-3-yl)benzamide]", "values": [{"measurement": "IC50", "setting": "[1]", "value": 0.24, "unit": "µM"}]}, {"smiles": "CC(O)c1ccc(-c2cc3c(N(C(=O)c4ccc(-n5nnc6cccnc65)cc4F)[C@@H]4CCCNC4)nccc3s2)cc1", "note": "(stereo partly drawn) [Example 600, 4-(3H-[1,2,3]triazolo[4,5-b]pyridin-3-yl)-2-fluoro-N-(2-(4-(1-hydroxyethyl)phenyl)thieno[3,2-c]pyridin-4-yl)-N—((R)-piperidin-3-yl)benzamide]", "values": [{"measurement": "IC50", "setting": "[1]", "value": 0.27, "unit": "µM"}]}, {"smiles": "CC(O)c1cccc(-c2cc3c(N(C(=O)c4ccc(-n5nnc6cccnc65)cc4F)[C@@H]4CCCNC4)nccc3s2)c1", "note": "(stereo partly drawn) [Example 601, 4-(3H-[1,2,3]triazolo[4,5-b]pyridin-3-yl)-2-fluoro-N-(2-(3-(1-hydroxyethyl)phenyl)thieno[3,2-c]pyridin-4-yl)-N—((R)-piperidin-3-yl)benzamide]", "values": [{"measurement": "IC50", "setting": "[1]", "value": 0.2, "unit": "µM"}]}, {"smiles": "CC(C)(O)c1cccc(-c2cc3c(N(C(=O)c4ccc(-n5nnc6cccnc65)cc4F)[C@@H]4CCCNC4)nccc3s2)c1", "note": "[Example 602, (R)-4-(3H-[1,2,3]triazolo[4,5-b]pyridin-3-yl)-2-fluoro-N-(2-(3-(2-hydroxypropan-2-yl)phenyl)thieno[3,2-c]pyridin-4-yl)-N-(piperidin-3-yl)benzamide]", "values": [{"measurement": "IC50", "setting": "[1]", "value": 0.46, "unit": "µM"}]}, {"smiles": "CC(=O)c1ccc(-c2cc3c(N(C(=O)c4ccc(-n5nnc6cccnc65)cc4F)[C@@H]4CCCNC4)nccc3s2)cc1", "note": "[Example 603, N-[2-(4-acetylphenyl)thieno[3,2-c]pyridin-4-yl]-2-fluoro-N-[(3R)-3-piperidyl]-4-(triazolo[4,5-b]pyridin-3-yl) benzamide]", "values": [{"measurement": "IC50", "setting": "[1]", "value": 0.24, "unit": "µM"}]}, {"smiles": "Cn1cc(-c2ccc(C(=O)N(c3nccc4sc(-c5ccc(C(O)(C(F)(F)F)C(F)(F)F)cc5)cc34)[C@@H]3CCCNC3)c(F)c2)nn1", "note": "[Example 604, (R)-2-fluoro-N-(2-(4-(1,1,1,3,3,3-hexafluoro-2-hydroxypropan-2-yl)phenyl)thieno[3,2-c]pyridin-4-yl)-4-(1-methyl-1H-1,2,3-triazol-4-yl)-N-(piperidin-3-yl)benzamide]", "values": [{"measurement": "IC50", "setting": "[1]", "value": 2.1, "unit": "µM"}]}, {"smiles": "Cn1cc(-c2ccc(C(=O)N(c3nccc4sc(-c5ccc(C(O)C(F)(F)F)cc5)cc34)[C@@H]3CCCNC3)c(F)c2)nn1", "note": "(stereo partly drawn) [Example 605, 2-fluoro-4-(1-methyl-1H-1,2,3-triazol-4-yl)-N—((R)-piperidin-3-yl)-N-(2-(4-(2,2,2-trifluoro-1-hydroxyethyl)phenyl)thieno[3,2-c]pyridin-4-yl)benzamide]", "values": [{"measurement": "IC50", "setting": "[1]", "value": 0.47, "unit": "µM"}]}, {"smiles": "Cc1cc(-c2cc3c(N(C(=O)c4ccc(-n5nnc6cccnc65)cc4F)[C@@H]4CCCNC4)nccc3s2)cc(C)c1C(N)=O", "note": "[Example 606, (R)-4-(3H-[1,2,3]triazolo[4,5-b]pyridin-3-yl)-N-(2-(4-carbamoyl-3,5-dimethylphenyl)thieno[3,2-c]pyridin-4-yl)-2-fluoro-N-(piperidin-3-yl)benzamide]", "values": [{"measurement": "IC50", "setting": "[1]", "value": 0.4, "unit": "µM"}]}, {"smiles": "Cc1cc(-c2cc3c(N(C(=O)c4ccc(-c5cn(C)nn5)cc4F)[C@@H]4CCCNC4)nccc3s2)ccc1C(N)=O", "note": "[Example 607, (R)—N-(2-(4-carbamoyl-3-methylphenyl)thieno[3,2-c]pyridin-4-yl)-2-fluoro-4-(1-methyl-1H-1,2,3-triazol-4-yl)-N-(piperidin-3-yl)benzamide]", "values": [{"measurement": "IC50", "setting": "[1]", "value": 0.8, "unit": "µM"}]}, {"smiles": "Cn1cc(-c2ccc(C(=O)N(c3nccc4cc(Cc5ccccc5)ccc34)[C@@H]3CCCNC3)c(F)c2)nn1", "note": "[Example 609, (R)—N-(6-benzylisoquinolin-1-yl)-2-fluoro-4-(1-methyl-1H-1,2,3-triazol-4-yl)-N-(piperidin-3-yl)benzamide]", "values": [{"measurement": "IC50", "setting": "[1]", "value": 0.4, "unit": "µM"}]}, {"smiles": "CC(=O)c1ccc2c(N(C(=O)c3ccc(-c4cn(C)nn4)cc3F)[C@@H]3CCCNC3)nccc2c1", "note": "[Example 610, (R)—N-(6-acetylisoquinolin-1-yl)-2-fluoro-4-(1-methyl-1H-1,2,3-triazol-4-yl)-N-(piperidin-3-yl)benzamide]", "values": [{"measurement": "IC50", "setting": "[1]", "value": 0.086, "unit": "µM"}]}, {"smiles": "Cc1cc(-c2cc3c(N(C(=O)c4ccc(-c5cn(C)nn5)cc4F)[C@@H]4CCCNC4)nccc3s2)cc(C)c1C(N)=O", "note": "[Example 611, (R)—N-(2-(4-carbamoyl-3,5-dimethylphenyl)thieno[3,2-c]pyridin-4-yl)-2-fluoro-4-(1-methyl-1H-1,2,3-triazol-4-yl)-N-(piperidin-3-yl)benzamide]", "values": [{"measurement": "IC50", "setting": "[1]", "value": 2.3, "unit": "µM"}]}, {"smiles": "Cc1c(-c2ccc(C(=O)N(c3nccc4sc(-c5ccc(C(N)=O)cc5)cc34)[C@@H]3CCCNC3)c(F)c2)cnn1C", "note": "[Example 612, (R)—N-(2-(4-carbamoylphenyl)thieno[3,2-c]pyridin-4-yl)-4-(1,5-dimethyl-1H-pyrazol-4-yl)-2-fluoro-N-(piperidin-3-yl)benzamide]", "values": [{"measurement": "IC50", "setting": "[1]", "value": 0.28, "unit": "µM"}]}, {"smiles": "Cn1cc(-c2ccc(C(=O)N(c3nccc4sc(-c5ccc(C(N)C(F)(F)F)cc5)cc34)[C@@H]3CCCNC3)c(F)c2)nn1", "note": "(stereo partly drawn) [Example 613, N-(2-(4-(1-amino-2,2,2-trifluoroethyl)phenyl)thieno[3,2-c]pyridin-4-yl)-2-fluoro-4-(1-methyl-1H-1,2,3-triazol-4-yl)-N—((R)-piperidin-3-yl)benzamide]", "values": [{"measurement": "IC50", "setting": "[1]", "value": 0.46, "unit": "µM"}]}, {"smiles": "Cc1cc(F)cc2ccnc(N(C(=O)c3ccc(-c4cn(C)nn4)cc3)[C@@H]3CCCNC3)c12", "note": "[Example 614, (R)—N-(6-fluoro-8-methylisoquinolin-1-yl)-4-(1-methyl-1H-1,2,3-triazol-4-yl)-N-(piperidin-3-yl)benzamide]", "values": [{"measurement": "IC50", "setting": "[1]", "value": 0.016, "unit": "µM"}]}]}
